Reference: US12084462B2, “Spiro bicyclic inhibitors of menin-MLL interaction” (Janssen Pharmaceutica NV, priority 2016, dated 2024)
“And” between values parts separate entries of the source, which are not always exact repeats. Equal entries are not always repeated. Where two headings read alike, the source gives them in different places.

Columns and labels:
MV-4-11 = assay: Proliferation assay (spheroid assay) MV-4-11; format: cell-based, human
Procedure: (§1) The anti-proliferative effect of menin/MLL protein/protein interaction inhibitor test compounds was assessed in human leukemia cell lines. The cell lines MV-4-11 and MOLM14 harbor MLL translocations and express the MLL fusion proteins MLL-AF4 and MLL-AF9, respectively, as well as the wildtype protein from the second allele. […] K562 and KG1 were used as a control cell lines containing two MLL wildtype alleles in order to exclude compounds that display general cytotoxic effects.
(§2) MV-4-11 and MOLM14 were cultured in RPMI-1640 (Sigma Aldrich) supplemented with 10% fetal bovine serum (HyClone), 2 mM L-glutamine (Sigma Aldrich) and 50 μg/ml gentamycin (Gibco). K562 were propagated in RPMI-1640 (Sigma Aldrich) supplemented with 20% fetal bovine serum (HyClone), 2 mM L-glutamine (Sigma Aldrich) and 50 μg/ml gentamycin (Gibco). KG1 were cultured in Iscove's MDM (Gibco) supplemented with 20% fetal bovine serum (HyClone), 2 mM L-glutamine (Sigma Aldrich) and 50 μg/ml gentamycin (Gibco).
(§3) In order to assess the anti-proliferative effects, 1,500 MV-4-11, 300 MOLM14, 750 K562 or 1,300 KG1 cells were seeded in 200 μl media per well in 96-well round bottom, ultra-low attachment plates (Costar, catalogue number 7007). Cell seeding numbers were chosen based on growth curves to ensure linear growth throughout the experiment. Test compounds were added at different concentrations and the DMSO content was normalized to 0.3%. Cells were incubated for 8 d at 37° C. and 5% CO2. Spheroid like growth was monitored in real-time by live-cell imaging (IncuCyteZOOM, Essenbio, 4× objective) acquiring one image every four hours for 8 d. Confluence (%) as a measure of spheroid size was determined using an integrated analysis tool.
(§4) In order to determine the cumulative effect of the test compounds over time, the area under the curve (AUC) in a plot of confluence against time was calculated. Confluence at the beginning of the experiment (t=0) was used as baseline for the AUC calculation.
(§5) Absolute IC50 values were calculated according to the following procedure: % Control=(AUC sample/AUC control)*100 AUC control=mean AUC of control values (cells without compound/DMSO as vehicle control)
(§6) A non-linear curve fit was applied using the least squares (ordinary) fit method to the plot of % control versus compound concentration. Based on this, the absolute IC50 value (half maximal inhibitory concentration of the test compound causing an anti-proliferative effect of 50% relative to the vehicle control) was calculated.

MOLM14 = assay: Proliferation assay (spheroid assay) MOLM14; format: cell-based, human
Procedure: as §1, §2, §3, §4, §5, §6

menin = target: T1, menin (Homo sapiens, UniProt O00255, T541A); assay: Menin/MLL fluorescence polarization (FP) assay; format: binding
T1 sequence (O00255 with tags, fused parts or gaps T541A): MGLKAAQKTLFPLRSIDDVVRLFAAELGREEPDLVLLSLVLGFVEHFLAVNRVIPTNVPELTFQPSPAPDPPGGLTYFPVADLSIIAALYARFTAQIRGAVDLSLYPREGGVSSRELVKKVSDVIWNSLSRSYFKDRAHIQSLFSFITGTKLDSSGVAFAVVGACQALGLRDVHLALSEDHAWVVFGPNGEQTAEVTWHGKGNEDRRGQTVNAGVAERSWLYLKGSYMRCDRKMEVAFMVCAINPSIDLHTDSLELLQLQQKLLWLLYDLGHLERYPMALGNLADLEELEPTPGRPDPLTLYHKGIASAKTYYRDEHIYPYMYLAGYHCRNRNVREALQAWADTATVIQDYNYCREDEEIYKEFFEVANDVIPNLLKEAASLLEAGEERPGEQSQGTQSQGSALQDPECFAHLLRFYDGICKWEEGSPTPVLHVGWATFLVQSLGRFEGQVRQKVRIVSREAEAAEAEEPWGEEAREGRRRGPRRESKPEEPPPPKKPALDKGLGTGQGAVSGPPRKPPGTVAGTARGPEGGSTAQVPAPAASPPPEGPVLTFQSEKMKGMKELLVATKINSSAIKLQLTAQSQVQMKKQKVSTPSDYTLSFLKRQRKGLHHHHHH
Procedure: 1) Menin/MLL Fluorescence Polarization Assay
To a non-surface binding, black 384-well microtiter plate was added 50 nL 160× test compound in DMSO and 4 μL 2× menin in assay buffer (40 mM Tris·HCl, pH 7.5, 50 mM NaCl, 1 mM DTT and 0.001% Tween 20). After incubation of test compound and menin for 10 min at ambient temperature, 4 μL 2×FITC-MBM1 peptide (FITC-β-alanine-SARWRFPARPGT-NH2 (SEQ ID NO: 2)) in assay buffer was added, the microtiter plate centrifuged at 1000 rpm for 1 min and the assay mixtures incubated for 15 min at ambient temperature. The relative amount of menin·FITC-MBM1 complex present in an assay mixture is determined by measuring the fluorescence polarization (FP) of the FITC label with a BMG Pherastar plate reader (ex. 485 nm/em. 520 nm) at ambient temperature. The final concentrations of reagents in the binding assay are 100 nM menin, 5 nM FITC-MBM1 peptide and 0.625% DMSO in assay buffer. Dose-response titrations of test compounds are conducted using an 11 point, three-fold serial dilution scheme, starting at 31 μM.
Compound potencies were determined by first calculating % inhibition at each compound concentration according to equation 1: % inhibition=((HC−LC)−(FP^compound−LC))/(HC−LC))*100 (Eqn 1)
Where LC and HC are the FP values of the assay in the presence or absence of a saturating concentration of a compound that competes with FITC-MBM1 for binding to menin, and FP^compound is the measured FP value in the presence of the test compound. HC and LC FP values represent an average of at least 16 replicates per plate. […] 2) Proliferation Assay

K562 = assay: Proliferation assay (spheroid assay) K562, control cell line; format: cell-based; conditions: Homo sapiens
Procedure: as §1, §2, §3, §4, §5, §6

KG1 = assay: Proliferation assay (spheroid assay) KG1, control cell line; format: cell-based; conditions: Homo sapiens, KG-1; KG1 control cell line; averaged values; read-out: Spheroid assay KG1 (IC50 (μM))
Procedure: as §1, §2, §3, §4, §5, §6

[1] = Homo sapiens, MV4-11, MV-4-11, averaged values, read-out: Spheroid assay MV-4-11 (IC50 (μM))
[2] = Homo sapiens, MOLM-14, MOLM14, averaged values, read-out: Spheroid assay MOLM14 (IC50 (μM))
[3] = averaged values over all measurements, read-out: Menin FP assay (IC50 (μM))
[4] = K562 control cell line, averaged values, read-out: Spheroid assay K562 (IC50 (μM))
[5] = MV-4-11 (MLL-AF4), 8 d, absolute IC50 from AUC of confluence, individual measurements (not averaged), read-out: (2) Spheroid assay MV-4-11 (IC50 (μM))
[6] = MOLM14 (MLL-AF9), 8 d, absolute IC50 from AUC of confluence, individual measurements (not averaged), read-out: (2) Spheroid assay MOLM14 (IC50 (μM))
[7] = 100 nM menin, 5 nM FITC-MBM1 peptide, individual measurements (not averaged), read-out: (1) Menin FP assay (IC50 (μM))
[8] = 192 h, K562 (MLL wildtype control), 8 d, absolute IC50 from AUC of confluence, individual measurements (not averaged), read-out: (2) Spheroid assay K562 (IC50 (μM))

Row | SMILES | IC50 (MV-4-11; [1]) | IC50 (MOLM14; [2]) | IC50 (menin; [3]) | IC50 (K562; [4]) | IC50 (MV-4-11; [5]) | IC50 (MOLM14; [6]) | IC50 (menin; [7]) | IC50 (K562; [8]) | IC50 (MOLM14; Homo sapiens, MOLM-14, 192 h, MOLM14 (MLL-AF9), 8 d, absolute IC50 from AUC of confluence, individual measurements (not averaged), read-out: (2) Spheroid assay MOLM14 (IC50 (μM))) | IC50 (KG1)
1 | FC(F)(F)Cc1cc2c(N3CCCC4(CCN(Cc5ccccc5)C4)C3)ncnc2s1 (racemic) [Compound 18] | 3.9 µM | 7.7 µM | 0.14 µM | > 15 µM | – | – | – | – | – | –
2 | CC(C)CN1CC[C@@]2(CCN(c3ncnc4sc(CC(F)(F)F)cc34)C2)C1 [Compound 184] | 0.97 µM | – | – | – | – | – | – | – | – | > 15 µM
3 | FC(F)(F)Cc1cc2c(N3CC4(CCN(Cc5ccccc5)C4)C3)ncnc2s1 [Compound 16] | – | – | – | – | 4.7 µM and > 15 µM | 8.7 µM | 0.134 µM | > 15 µM | 9.3 µM | –
4 | CC(C)[C@@H](c1cnn(C)c1)N1CC[C@]2(CCN(c3ncnc4sc(CC(F)(F)F)cc34)C2)C1 (single isomer, unassigned) [Compound 189] | 0.92 µM | – | – | – | – | – | – | – | – | > 15 µM
5 | FC(F)(F)Cc1cc2c(N3CCC4(CN(Cc5ccc[nH]5)C4)C3)ncnc2s1 [Compound 25] | 3.8 µM | 7.2 µM | 0.31 µM | – | – | – | – | – | – | –
6 | FC(F)(F)Cc1cc2c(N3CCC4(CN(CC5CC6(CCC6)C5)C4)C3)ncnc2s1 [Compound 22] | 0.55 µM | 2 µM | 0.069 µM | > 15 µM | – | – | – | – | – | –
7 | FC(F)(F)Cc1cc2c(N3CC[C@@]4(CCN(Cc5ccccc5)C4)C3)ncnc2s1 (single isomer, unassigned) [Compound 20a] | 0.96 µM | 5 µM | 0.076 µM | > 15 µM | – | – | – | – | – | –

Second part, led by results:

Row | IC50 (MV-4-11; [1]) | IC50 (MOLM14; [2]) | IC50 (menin; [3]) | IC50 (K562; [4]) | IC50 (MV-4-11; [5]) | IC50 (MOLM14; [6]) | IC50 (menin; [7]) | IC50 (K562; [8]) | IC50 (MOLM14; Homo sapiens, MOLM-14, 192 h, MOLM14 (MLL-AF9), 8 d, absolute IC50 from AUC of confluence, individual measurements (not averaged), read-out: (2) Spheroid assay MOLM14 (IC50 (μM))) | SMILES | IC50 (KG1)
8 | 4.9 µM | 14.6 µM | 0.39 µM | > 15 µM | – | – | – | – | – | FC(F)(F)CCN1CC2(CCN(c3ncnc4sc(CC(F)(F)F)cc34)C2)C1 [Compound 2] | –
9 | – | – | – | – | 4.1 µM and 0.63 µM and 0.58 µM and 0.68 µM and 0.52 µM | 8 µM and 2.8 µM and 4.6 µM | 0.048 µM | > 15 µM | – | O=C([C@@H]1CC2(CC2)CN1)N1CC2(C1)CN(c1ncnc3sc(CC(F)(F)F)cc13)C2 [Compound 87] | –
10 | 0.67 µM | 3.4 µM | – | > 15 µM | – | – | – | – | – | C[C@H]1CN[C@H](C(=O)N2CC3(C2)CN(c2ncnc4sc(CC(F)(F)F)cc24)C3)C1 [Compound 105] | –
11 | 3.8 µM | 5.6 µM | 0.1 µM | ~15 µM | – | – | – | – | – | FC(F)(F)Cc1cc2c(N3CCC4(CCN(Cc5ccccc5)C4)CC3)ncnc2s1 [Compound 3] | –
12 | 5.1 µM | 12.4 µM | 0.14 µM | – | – | – | – | – | – | C[C@H](c1cnn(C)c1)N1CC2(CCN(c3ncnc4sc(CC(F)(F)F)cc34)C2)C1 [Compound 198] | –
13 | 1.5 µM | 3.1 µM | 0.17 µM | – | – | – | – | – | – | NCCCOc1cccc(CN2CC3(CCN(c4ncnc5sc(CC(F)(F)F)cc45)C3)C2)c1 [Compound 37] | –
14 | 6.4 µM | 30.6 µM | 0.67 µM | > 15 µM | – | – | – | – | – | FC(F)(F)Cc1cc2c(N3CCC4(CN(Cc5cn6ccccc6n5)C4)C3)ncnc2s1 [Compound 5] | –
